Values joined by “and” are separate entries in the source; they are usually repeats but may differ in a detail not shown here. Equal values may be shown once. Toxic doses and inconclusive results are not listed. No stated cut-off is given here; in the data, active means T/C of 150% or more; inactive means T/C below 125%.
System: L1210 leukemia ip in BDF1 mice, survival T/C
Assay: NCI In Vivo Anticancer Drug Screen. Data for tumor model L1210 Leukemia (intraperitoneal) in B6D2F1 (BDF1) mice
Conditions: endpoint: mean survival time, higher = longer survival
Procedure, shortened: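 Each compound was tested against a transplantable tumor grown in mice. The endpoint was survival, with treated animals benchmarked against vehicle controls as a simple ratio.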

[1] = dose: 100.0 mg/kg/injection, schedule: Q04DX002 (ip), vehicle: Klucel (hydroxypropylcellulose) (HPC)
[2] = dose: 200.0 mg/kg/injection, schedule: Q04DX002 (ip), vehicle: Klucel (hydroxypropylcellulose) (HPC)
[3] = dose: 400.0 mg/kg/injection, schedule: Q04DX002 (ip), vehicle: Klucel (hydroxypropylcellulose) (HPC)
[4] = dose: 100.0 mg/kg/injection, schedule: Q04DX003 (ip), vehicle: saline with Tween-80
[5] = dose: 200.0 mg/kg/injection, schedule: Q04DX003 (ip), vehicle: saline with Tween-80
[6] = dose: 400.0 mg/kg/injection, schedule: Q04DX003 (ip), vehicle: saline with Tween-80
[7] = dose: 100.0 mg/kg/injection, schedule: Q01DX009 (ip), vehicle: saline with Tween-80
[8] = dose: 100.0 mg/kg/injection, schedule: Q04DX003 (ip), vehicle: saline
[9] = dose: 200.0 mg/kg/injection, schedule: Q01DX009 (ip), vehicle: saline with Tween-80
[10] = dose: 200.0 mg/kg/injection, schedule: Q04DX003 (ip), vehicle: saline
[11] = dose: 400.0 mg/kg/injection, schedule: Q01DX009 (ip), vehicle: saline with Tween-80
[12] = dose: 75.0 mg/kg/injection, schedule: Q01DX001 (ip), vehicle: carboxymethylcellulose (CMC)
[13] = dose: 150.0 mg/kg/injection, schedule: Q01DX001 (ip), vehicle: carboxymethylcellulose (CMC)
[14] = dose: 300.0 mg/kg/injection, schedule: Q01DX001 (ip), vehicle: carboxymethylcellulose (CMC)
[15] = dose: 100.0 mg/kg/injection, schedule: Q01DX001 (ip), vehicle: saline
[16] = dose: 200.0 mg/kg/injection, schedule: Q01DX001 (ip), vehicle: saline
[17] = dose: 400.0 mg/kg/injection, schedule: Q01DX001 (ip), vehicle: saline
[18] = dose: 100.0 mg/kg/injection, schedule: Q04DX003 (ip), vehicle: Klucel (hydroxypropylcellulose) (HPC)
[19] = dose: 200.0 mg/kg/injection, schedule: Q04DX003 (ip), vehicle: Klucel (hydroxypropylcellulose) (HPC)
[20] = dose: 100.0 mg/kg/injection, schedule: Q01DX009 (ip), vehicle: saline
[21] = dose: 200.0 mg/kg/injection, schedule: Q01DX009 (ip), vehicle: saline
[22] = dose: 50.0 mg/kg/injection, schedule: Q01DX001 (ip), vehicle: carboxymethylcellulose (CMC)
[23] = dose: 100.0 mg/kg/injection, schedule: Q01DX001 (ip), vehicle: carboxymethylcellulose (CMC)
[24] = dose: 200.0 mg/kg/injection, schedule: Q01DX001 (ip), vehicle: carboxymethylcellulose (CMC)
[25] = dose: 400.0 mg/kg/injection, schedule: Q01DX001 (ip), vehicle: carboxymethylcellulose (CMC)

Measured: T/C

Cc1ccc2c(ccc(C)[n+]2C)c1
inactive: dose: 37.5 mg/kg/injection, schedule: Q01DX009 (ip), vehicle: acetone 117 % of control | dose: 37.5 mg/kg/injection, schedule: Q01DX009 (ip), vehicle: saline 110 % of control and 112 % of control | dose: 75.0 mg/kg/injection, schedule: Q01DX001 (ip), vehicle: saline 100 % of control | dose: 75.0 mg/kg/injection, schedule: Q01DX009 (ip), vehicle: saline 118 % of control and 121 % of control | dose: 150.0 mg/kg/injection, schedule: Q01DX001 (ip), vehicle: saline 108 % of control | dose: 150.0 mg/kg/injection, schedule: Q01DX009 (ip), vehicle: acetone 102 % of control | dose: 300.0 mg/kg/injection, schedule: Q01DX001 (ip), vehicle: saline 105 % of control

COC(=O)N/N=C/c1ccc(C)cc1
inactive: [1] 108 % of control | [2] 115 % of control | [3] 94 % of control

O=C(O)c1cccc2c1oc1c(O)cccc12
inactive: dose: 25.0 mg/kg/injection, schedule: Q04DX002 (ip), vehicle: Klucel (hydroxypropylcellulose) (HPC) 93 % of control | dose: 50.0 mg/kg/injection, schedule: Q04DX002 (ip), vehicle: Klucel (hydroxypropylcellulose) (HPC) 90 % of control | [1] 93 % of control

CCc1ccc(NC(C)=O)cc1
inactive: [4] 105 % of control | [5] 94 % of control | [6] 102 % of control

NC(Cc1ccc([N+](=O)[O-])cc1)C(=O)O (stereo not given)
inactive: dose: 100.0 mg/kg/injection, schedule: Q01DX001 (ip), vehicle: saline sonified 116 % of control | [7] 100 % of control and 98 % of control | [8] 111 % of control | dose: 200.0 mg/kg/injection, schedule: Q01DX001 (ip), vehicle: saline sonified 103 % of control | [9] 95 % of control | [10] 101 % of control | dose: 400.0 mg/kg/injection, schedule: Q01DX001 (ip), vehicle: saline sonified 103 % of control | [11] 100 % of control and 92 % of control | dose: 400.0 mg/kg/injection, schedule: Q04DX003 (ip), vehicle: saline 90 % of control

O=S1(=O)C(c2ccccc2)C(N2CCCCC2)C1C1CC2c3ccccc3C1c1ccccc12 (stereo not given)
inactive: [12] 91 % of control | [13] 91 % of control | [14] 86 % of control

Clc1ccc(N=C/C=C/c2ccccc2)cc1
inactive: dose: 25.0 mg/kg/injection, schedule: Q04DX003 (ip), vehicle: other 95 % of control | dose: 50.0 mg/kg/injection, schedule: Q04DX003 (ip), vehicle: other 108 % of control | dose: 100.0 mg/kg/injection, schedule: Q04DX003 (ip), vehicle: other 100 % of control

C=CCOC(=O)Nc1cccc(OC(=O)NC)c1
inactive: [4] 105 % of control | [5] 105 % of control | [6] 100 % of control

Cc1ccc2cccc3c(=O)c4cccc5cccc(sc1c23)c54
inactive: [15] 88 % of control | dose: 100.0 mg/kg/injection, schedule: Q01DX009 (ip), vehicle: other 92 % of control | [16] 97 % of control | dose: 200.0 mg/kg/injection, schedule: Q01DX009 (ip), vehicle: other 92 % of control | [17] 89 % of control | dose: 400.0 mg/kg/injection, schedule: Q01DX009 (ip), vehicle: other 92 % of control

O=C(O)/C(=C\c1ccccc1Cl)c1ccccc1
inactive: [1] 94 % of control | [2] 90 % of control

COC(=O)CCN(c1ccccc1)S(=O)(=O)c1ccc(C)cc1
inactive: [18] 91 % of control | [19] 94 % of control | dose: 400.0 mg/kg/injection, schedule: Q04DX003 (ip), vehicle: Klucel (hydroxypropylcellulose) (HPC) 93 % of control

O=C1c2cccc3cc([N+](=O)[O-])cc(c23)C(=O)N1CCc1ccccn1
inactive: [1] 94 % of control | [2] 102 % of control | [3] 108 % of control

Cc1ccc(C)c(NC(=O)N(C2CCCCC2)C2CCCCC2)c1
inactive: [7] 112 % of control | [4] 100 % of control | [9] 101 % of control | [5] 94 % of control | [11] 107 % of control | [6] 97 % of control

CCOC(=O)C(=[N+]=[N-])C(F)(F)F
inactive: dose: 50.0 mg/kg/injection, schedule: Q01DX009 (ip), vehicle: saline 102 % of control | [20] 102 % of control | [21] 95 % of control

c1ccc(CC2SCCCS2)cc1
inactive: [7] 103 % of control | [4] 108 % of control | [9] 88 % of control | [5] 95 % of control | [11] 99 % of control | [6] 95 % of control

Cc1[nH]c2ccccc2c1C(=O)Cc1ccc(Cl)c(Cl)c1
inactive: dose: 50.0 mg/kg/injection, schedule: Q01DX001 (ip), vehicle: saline 101 % of control | [15] 98 % of control | [16] 98 % of control | [17] 101 % of control

COc1ccc(OC)c(NC(=O)N(CCC#N)C2CCCCC2)c1
inactive: [18] 91 % of control | [19] 91 % of control

CC(=O)OC1CCC2(C)C(CCC3C2CCC2(C)C(C(C)O)CCCC32)C1 (stereo not given)
inactive: dose: 100.0 mg/kg/injection, schedule: Q01DX001 (ip), vehicle: Klucel (hydroxypropylcellulose) (HPC) 88 % of control | dose: 200.0 mg/kg/injection, schedule: Q01DX001 (ip), vehicle: Klucel (hydroxypropylcellulose) (HPC) 98 % of control

COc1ccc(-n2cnnn2)cc1
inactive: [15] 103 % of control | [16] 103 % of control | [17] 103 % of control

COC(=O)C1c2ccccc2-c2ccc(N3C(=O)C=CC3=O)cc21 (stereo not given)
inactive: [4] 107 % of control | [5] 104 % of control | [6] 115 % of control

O=C(c1ccccc1)N1CCCCC1
inactive: [20] 95 % of control | [8] 95 % of control | [21] 95 % of control | [10] 94 % of control

Clc1nc2nc[nH]c2nc1Cl
inactive: dose: 25.0 mg/kg/injection, schedule: Q04DX003 (ip), vehicle: saline with Tween-80 98 % of control | dose: 50.0 mg/kg/injection, schedule: Q04DX003 (ip), vehicle: saline with Tween-80 104 % of control | [18] 92 % of control | [4] 86 % of control

O=C(O)c1cc(O)[nH]c(=O)c1
inactive: [4] 102 % of control | [5] 91 % of control | [6] 94 % of control

CSc1ncnc2c1ncn2C1CCCC1
inactive: [22] 116 % of control | [23] 104 % of control | [24] 107 % of control

Fc1cc(N(CCCl)CCCl)ccc1C1N(Cc2ccc(N(CCCl)CCCl)cc2Cl)CCCN1Cc1ccc(N(CCCl)CCCl)cc1Cl
inactive: [22] 96 % of control | [23] 105 % of control | [24] 96 % of control | [25] 100 % of control

O=[N+]([O-])c1ccc(CS(=O)Cc2ccccc2)cc1 (stereo not given)
inactive: [12] 91 % of control | [13] 100 % of control | [14] 100 % of control

Cn1ncc(C(=O)O)c1NN=O
inactive: dose: 50.0 mg/kg/injection, schedule: Q04DX003 (ip), vehicle: saline 104 % of control | [23] 106 % of control | [8] 105 % of control | [24] 108 % of control | [10] 96 % of control | [25] 102 % of control

COC(=O)C1Cc2c([nH]c3ccccc23)CN1 (stereo not given)
inactive: dose: 9.0 mg/kg/injection, schedule: Q01DX009 (ip), vehicle: saline 95 % of control | dose: 9.0 mg/kg/injection, schedule: Q04DX003 (ip), vehicle: saline 100 % of control | dose: 18.0 mg/kg/injection, schedule: Q01DX009 (ip), vehicle: saline 101 % of control | dose: 18.0 mg/kg/injection, schedule: Q04DX003 (ip), vehicle: saline 98 % of control | dose: 37.0 mg/kg/injection, schedule: Q01DX009 (ip), vehicle: saline 105 % of control | dose: 37.0 mg/kg/injection, schedule: Q04DX003 (ip), vehicle: saline 93 % of control

From PubChem BioAssay AID248 (DTP/NCI, 2004)
